Results as given in US20260137697A1, “THIAZOLO[5,4-D]PYRIMIDINE COMPOUNDS, COMPOSITIONS COMPRISING THEM AND USES THEREOF” (University de Montreal, priority 2022, published 2026).
Where two headings read alike, the source gives them in different places.

What was measured:
Assay type in all cases: cell-based, human
NCI-H358 cells = experiment: Proliferation inhibition, CellTiter-Glo, NCI-H358; settings: Table D-2, NCI-H358 (KRAS-G12C), 3 days, read-out: Prolif. (proliferation EC50)
Experimental: (§1) All cancer cell lines (A375, A101D, A2058, RKO, HT29 SK-MEL 30, IPC298, HepG2, HCT-116, Lovo, SW620, SW480, NCI-H358, NCI-H2122, Calu-6, NCIH2087, NCIH1755, NCIH1666 and Mewo) were obtained from ATCC and cultured in RPM1-1640 medium (Gibco) supplemented with 5% heat inactivated fetal bovine serum (FBS, Wisent) at 37° C. under 5% CO2. Cells were maintained in T175 flasks (Greiner). They were passaged by removing the culture medium, washing once in 10 mL of room temperature Phosphate Buffered Saline (PBS; Wisent) and incubating at 37° C. with 2 mL of 0.05% Trypsin (Thermo-Fisher). Trypsin was then inactivated by adding complete growth medium and the cells were then replated in a T175 culture dish at the appropriate dilution. All cell lines were routinely tested for mycoplasma contamination. Tissue type and mutational status of each cell line can be found in Table B.
(§2) CellTiter-Glo® viability analysis was conducted on cells plated in 100 μL of complete RPMI-1640 growth medium in 96-well flat-bottomed white opaque plates (Greiner or Croning) at a density indicated in Table E (for each CCL, number of cells plated per well of a 96-well plate to perform the CellTiter-Glo® cell viability assay). The cell density in cells/cm^2 would correspond to cell number divided by the area of one well of a 96-well plate (0.32 cm^2). […]
(§3) After 3 days of incubation, the growth media were removed by aspiration and 60 μL of diluted CellTiter-Glo® reagent (10 μL CellTiter-Glo® reagent+50 μL of PBS) was added to each well. […] Luminescence signals were then acquired on a Synergy Neo2 plate reader (Biotek).
(§4) The effect of each compound dilution on the proliferation of cancer cell lines was expressed in % inhibition and calculated as follows. […]
(§5) The ability of each compound to inhibit proliferation was expressed as a EC50 value obtained by plotting the effect values for each data point of a dilution series and fitting the obtained curves using a log(agonist) versus response—variable slope (four parameters) function using GraphPadPrism (V7.0) or Dotmatics Screening Ultra platform.

pERK, SW480 cells = experiment: Phospho-ERK inhibition, AlphaLISA p-ERK 1/2, SW480; settings: Table D-2; for IC50: SW480 (KRAS G12D); for pERK value in parentheses, % inhibition (Ymin): SW480, lowest point of IC50 curve
Experimental: as §1
(§6) (c) Measurement of Phospho-ERK Inhibition in Cultivated Human Cancer Cell Lines by the AlphaLISA® SureFire® Ultra™ p-ERK 1/2 (Thr2O2/Tyr204)
(§7) AlphaLISA® SureFire® Ultra™ p-ERK 1/2 (Thr202/Tyr204) analysis was conducted on cells plated in 100 μL of complete RPMI-1640 growth medium in 96-well flat-bottomed transparent dishes (Costar) at a density indicated in Table C. Cells were maintained overnight at 37° C. under 5% CO2 before treatment with compounds' dilution series for one hour. The cell density in cells/cm^2 corresponds to cell number divided by the area of one well of a 96-well plate (0.143 cm^2).
(§8) In a dilution series 100 μL/well of test substance dilution prepared in complete RPMI-1640 growth media was added to the cells. The dilution series is selected so that ten concentrations cover a range from 10 μM to 0.33 nM. If necessary, the initial concentration of 10 μM is increased to 100 μM or lowered to 1 μM (as in the case of A375 and H1666 cells, which are generally more sensitive to the compounds) and further dilution is carried out accordingly. The final concentration of DMSO in the assay is set at 0.5%.
(§9) After treatment, media was removed, and cells were lysed in 50 μL of 1× AlphaScreen Ultra Lysis Buffer (Perkin Elmer). The AlphaLISA® SureFire® Ultra™ p-ERK 1/2 (Thr202/Tyr204) (PerkinElmer) reactions were performed with 5 μL of cell lysate according to the manufacturer's specifications in 384-well proxyplates (Perkin Elmer) followed by overnight incubation of the reactions at room temperature in a humidified chamber. After completion of the reactions, the signals were recorded on an EnVision plate reader (Perkin Elmer) using built in AlphaLISA® settings.
(§10) The effect of each compound dilution on the pERK signal was expressed in % inhibition and calculated as follows. An internal 100% inhibition control (1 μM trametinib, cat. No. HY-10999; MedChem Express; CAS No. 871700-17-3) was included in each plate and used as a measure of pERK background. First, the value obtained for trametinib was subtracted from each data point. The average of DMSO (vehicle) controls (set as 0% inhibition) was established and used to calculate % inhibition:
as §5, with “pERK signal” for “proliferation”, “an IC50” for “a EC50”, “inhibition” for “effect”
(§11) When present, paradoxical pERK induction is inferred from the negative % inhibition values observed in the pERK IC50 curves of a compound.

Lovo cells = experiment: Proliferation inhibition, CellTiter-Glo, Lovo; settings: Table D-2, Lovo (KRAS-G13D), 3 days, read-out: Prolif. (proliferation EC50)
Experimental: as §1, §2, §3, §4, §5

SK-MEL30 cells = experiment: Proliferation inhibition, CellTiter-Glo, SK-MEL30; settings: Table D-1, SK-MEL30 (NRAS-Q61K), 3 days, read-out: Prolif. (proliferation EC50)
Experimental: as §1, §2, §3, §4, §5

pERK, NCIH2087 cells = experiment: Phospho-ERK inhibition, AlphaLISA p-ERK 1/2, NCIH2087; settings: Table D-2; for IC50: NCIH2087 (BRAF L597V; KRAS Q61K); for pERK value in parentheses, % inhibition (Ymin): NCIH2087, lowest point of IC50 curve
Experimental: as §1, §6, §7, §8, §9, §10
as §5, with “pERK signal” for “proliferation”, “an IC50” for “a EC50”, “inhibition” for “effect”
as §11

Row | Compound | EC50 (NCI-H358 cells; Homo sapiens, 72 h) [µM] | IC50 (pERK, SW480 cells; Homo sapiens) [µM] | pERK value in parentheses, % inhibition (Ymin) (pERK, SW480 cells) | EC50 (Lovo cells; Homo sapiens, 72 h) [µM] | EC50 (SK-MEL30 cells; Homo sapiens, SK-MEL-30, 72 h) [µM] | IC50 (pERK, NCIH2087 cells; Homo sapiens, NCI-H2087) [µM] | pERK value in parentheses, % inhibition (Ymin) (pERK, NCIH2087 cells) [%] | EC50 (NCI-H358 cells) [µM] | IC50 (pERK, SW480 cells) [µM] | EC50 (Lovo cells) [µM] | EC50 (SK-MEL30 cells) [µM] | IC50 (pERK, NCIH2087 cells) [µM]
1 | Cc1ccc2c(Nc3cccc(Cl)c3F)nccc2c1NC(=O)c1csc2c(N)ncnc12 [Belvarafenib, reference compound] | 0.3 to 3 | 0.03 to 0.3 | (−100) % | < 0.3 | < 0.3 | < 0.03 | 6 | – | – | – | – | –
2 | Cc1c(F)cccc1S(=O)(=O)Nc1ccc(F)c(Nc2ncnc3sc(-n4cc(C(=O)N5C6CCC5CN(C)C6)c5ccccc54)nc23)c1F [Example 44] | – | – | (−4) % | – | – | – | 4 | < 0.3 | 0.03 to 0.3 | < 0.3 | < 0.3 | < 0.03
3 | N#CC1(c2cccc3c2ncn3-c2nc3c(Nc4c(F)ccc(NS(=O)(=O)c5cccc(Cl)c5Cl)c4F)ncnc3s2)CC1 [Example 122] | – | – | (5) % | – | – | – | 4 | < 0.3 | 0.03 to 0.3 | < 0.3 | < 0.3 | < 0.03
